Source: the kinase profiling compilation of Christmann-Franck et al. (2016)

Tests used:
Assay in all cases: KINOMEscan competition binding
Settings in all cases: compound 10.0 µM
[1] = target: AAK1 (human) (UniProt Q2M2I8)
[2] = target: ADCK3 (human) (UniProt Q8NI60)
[3] = target: CDK11B (human) (UniProt P21127)
[4] = target: CDK17 (human) (UniProt Q00537)
[5] = target: CDK4 CCND1 (human) (UniProt P11802+P24385)
[6] = target: CDK8 (human) (UniProt P49336)
[7] = target: CDKL2 (human) (UniProt Q92772)
[8] = target: DCLK1 (human) (UniProt O15075)
[9] = test system: EGFR (human), P00533 [747-751 del / S ins]
[10] = test system: EGFR (human), P00533 [752-759 del]
[11] = target: EPHA3 (human) (UniProt P29320)
[12] = target: ERBB2 (human) (UniProt P04626)
[13] = target: ERBB4 (human) (UniProt Q15303)
[14] = target: HIPK4 (human) (UniProt Q8NE63)
[15] = target: INSR (human) (UniProt P06213)
[16] = target: LYN (human) (UniProt P07948)
[17] = target: MAP2K2 (human) (UniProt P36507)
[18] = target: MAPK1 (human) (UniProt P28482)
[19] = target: MAPK6 (human) (UniProt Q16659)
[20] = target: MAPK9 (human) (UniProt P45984)
[21] = target: MAST1 (human) (UniProt Q9Y2H9)
[22] = target: NEK6 (human) (UniProt Q9HC98)
[23] = target: NUAK2 (human) (UniProt Q9H093)
[24] = target: PAK7 (human) (UniProt Q9P286)
[25] = target: PLK1 (human) (UniProt P53350)
[26] = target: PRKCI (human) (UniProt P41743)
[27] = target: PRKD1 (human) (UniProt Q15139)
[28] = target: PRKG1 (human) (UniProt Q13976)
[29] = target: RET (human) (UniProt P07949)
[30] = test system: RET (human), P07949 [M918T]
[31] = target: RPS6KA2 KD1 (human) (UniProt Q15349)
[32] = target: RPS6KA5 KD1 (human) (UniProt O75582)
[33] = target: SIK3 (human) (UniProt Q9Y2K2)
[34] = target: SRC (human) (UniProt P12931)
[35] = target: STK33 (human) (UniProt Q9BYT3)
[36] = target: STK39 (human) (UniProt Q9UEW8)
[37] = target: SYK (human) (UniProt P43405)
[38] = target: TSSK1B (human) (UniProt Q9BXA7)
[39] = target: CDK18 (human) (UniProt Q07002)

Sequence of PLK1 (human) (P53350 whole entry, looked up): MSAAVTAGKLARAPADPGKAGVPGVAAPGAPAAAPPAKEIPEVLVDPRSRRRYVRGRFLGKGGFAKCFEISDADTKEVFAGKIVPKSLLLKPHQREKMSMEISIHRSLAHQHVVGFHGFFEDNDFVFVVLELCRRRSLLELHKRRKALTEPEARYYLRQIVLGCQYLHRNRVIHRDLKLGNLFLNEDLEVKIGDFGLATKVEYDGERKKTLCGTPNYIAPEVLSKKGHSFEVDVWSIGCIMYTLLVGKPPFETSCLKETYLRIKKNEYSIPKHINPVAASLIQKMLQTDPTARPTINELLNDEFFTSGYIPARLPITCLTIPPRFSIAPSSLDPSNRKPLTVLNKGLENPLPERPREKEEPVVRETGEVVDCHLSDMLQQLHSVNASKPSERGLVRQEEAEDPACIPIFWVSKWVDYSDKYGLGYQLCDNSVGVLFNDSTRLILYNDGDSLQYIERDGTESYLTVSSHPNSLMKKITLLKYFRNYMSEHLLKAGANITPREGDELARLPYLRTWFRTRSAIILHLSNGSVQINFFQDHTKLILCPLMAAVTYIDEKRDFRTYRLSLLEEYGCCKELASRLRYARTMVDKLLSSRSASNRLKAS
Sequence of DCLK1 (human) (O15075 whole entry, looked up): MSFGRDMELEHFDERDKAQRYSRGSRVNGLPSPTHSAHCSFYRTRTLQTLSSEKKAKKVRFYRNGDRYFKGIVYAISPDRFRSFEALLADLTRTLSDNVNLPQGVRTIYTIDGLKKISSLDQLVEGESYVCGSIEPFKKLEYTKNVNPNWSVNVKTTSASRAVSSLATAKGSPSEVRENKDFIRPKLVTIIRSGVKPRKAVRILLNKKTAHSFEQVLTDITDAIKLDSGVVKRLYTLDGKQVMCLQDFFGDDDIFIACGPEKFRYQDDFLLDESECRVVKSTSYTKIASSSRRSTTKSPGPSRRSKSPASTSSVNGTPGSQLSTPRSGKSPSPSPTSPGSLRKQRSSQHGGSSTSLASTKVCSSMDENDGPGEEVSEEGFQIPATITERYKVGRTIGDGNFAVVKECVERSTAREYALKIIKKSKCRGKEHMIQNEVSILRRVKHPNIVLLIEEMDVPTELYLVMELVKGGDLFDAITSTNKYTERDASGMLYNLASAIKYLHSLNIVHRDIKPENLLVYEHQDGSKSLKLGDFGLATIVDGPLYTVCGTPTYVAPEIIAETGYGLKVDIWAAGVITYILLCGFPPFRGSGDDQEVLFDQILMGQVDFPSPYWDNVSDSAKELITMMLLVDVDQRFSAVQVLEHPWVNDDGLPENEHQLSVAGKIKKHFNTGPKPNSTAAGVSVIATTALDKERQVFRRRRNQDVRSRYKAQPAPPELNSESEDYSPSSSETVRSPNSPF
Sequence of NUAK2 (human) (Q9H093 whole entry, looked up): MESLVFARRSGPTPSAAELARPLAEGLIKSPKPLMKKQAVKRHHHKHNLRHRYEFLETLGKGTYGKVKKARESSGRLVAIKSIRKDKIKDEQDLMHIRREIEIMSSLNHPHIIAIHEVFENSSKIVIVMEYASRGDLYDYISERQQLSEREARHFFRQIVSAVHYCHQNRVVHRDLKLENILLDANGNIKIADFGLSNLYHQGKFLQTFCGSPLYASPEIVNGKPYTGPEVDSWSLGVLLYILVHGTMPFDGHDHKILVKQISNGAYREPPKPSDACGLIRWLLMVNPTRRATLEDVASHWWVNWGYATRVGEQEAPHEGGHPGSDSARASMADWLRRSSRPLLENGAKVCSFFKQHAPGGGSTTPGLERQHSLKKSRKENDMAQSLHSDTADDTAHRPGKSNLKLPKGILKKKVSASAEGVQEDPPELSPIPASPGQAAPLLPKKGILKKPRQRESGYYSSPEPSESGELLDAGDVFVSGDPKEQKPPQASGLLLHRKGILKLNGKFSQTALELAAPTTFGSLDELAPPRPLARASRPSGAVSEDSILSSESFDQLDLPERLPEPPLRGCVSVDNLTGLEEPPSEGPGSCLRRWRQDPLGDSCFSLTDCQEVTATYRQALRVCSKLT
Sequence of MAPK1 (human) (P28482 whole entry, looked up): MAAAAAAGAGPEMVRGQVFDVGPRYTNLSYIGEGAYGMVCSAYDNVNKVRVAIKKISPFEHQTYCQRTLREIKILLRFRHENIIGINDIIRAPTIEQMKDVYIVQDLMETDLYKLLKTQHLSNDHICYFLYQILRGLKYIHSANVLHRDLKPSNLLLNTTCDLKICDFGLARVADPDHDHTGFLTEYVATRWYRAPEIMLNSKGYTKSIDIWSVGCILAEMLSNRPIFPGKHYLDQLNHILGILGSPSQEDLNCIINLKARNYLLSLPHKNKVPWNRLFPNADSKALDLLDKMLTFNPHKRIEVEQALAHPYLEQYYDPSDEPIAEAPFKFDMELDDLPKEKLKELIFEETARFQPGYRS
Sequence of CDK8 (human) (P49336 whole entry, looked up): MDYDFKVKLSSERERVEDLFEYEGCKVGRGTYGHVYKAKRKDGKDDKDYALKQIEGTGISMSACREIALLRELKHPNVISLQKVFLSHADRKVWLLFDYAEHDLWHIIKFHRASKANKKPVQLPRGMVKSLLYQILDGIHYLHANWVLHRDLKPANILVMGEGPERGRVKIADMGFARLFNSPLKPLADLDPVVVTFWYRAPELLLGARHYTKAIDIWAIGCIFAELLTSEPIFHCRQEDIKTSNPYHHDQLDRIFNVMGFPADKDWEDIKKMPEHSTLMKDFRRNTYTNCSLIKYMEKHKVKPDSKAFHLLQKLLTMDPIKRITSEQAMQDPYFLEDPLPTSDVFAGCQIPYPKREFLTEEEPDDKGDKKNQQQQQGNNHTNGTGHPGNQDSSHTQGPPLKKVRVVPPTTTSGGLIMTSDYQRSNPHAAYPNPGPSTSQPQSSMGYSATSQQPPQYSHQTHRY
Sequence of CDKL2 (human) (Q92772 whole entry, looked up): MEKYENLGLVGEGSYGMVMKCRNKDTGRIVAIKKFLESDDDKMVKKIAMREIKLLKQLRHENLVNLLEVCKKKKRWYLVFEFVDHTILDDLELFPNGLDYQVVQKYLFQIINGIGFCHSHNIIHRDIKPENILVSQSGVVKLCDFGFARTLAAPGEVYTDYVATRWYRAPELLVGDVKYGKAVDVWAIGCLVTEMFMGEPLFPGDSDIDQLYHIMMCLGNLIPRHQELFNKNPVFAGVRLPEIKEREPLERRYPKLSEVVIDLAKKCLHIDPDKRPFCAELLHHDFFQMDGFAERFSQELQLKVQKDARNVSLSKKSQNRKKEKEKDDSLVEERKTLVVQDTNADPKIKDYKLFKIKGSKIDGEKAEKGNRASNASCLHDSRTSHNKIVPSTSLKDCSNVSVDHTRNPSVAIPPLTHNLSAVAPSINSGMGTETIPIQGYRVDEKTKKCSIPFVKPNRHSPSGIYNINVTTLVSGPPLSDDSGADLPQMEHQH
Sequence of RET (human) (P07949 whole entry, looked up): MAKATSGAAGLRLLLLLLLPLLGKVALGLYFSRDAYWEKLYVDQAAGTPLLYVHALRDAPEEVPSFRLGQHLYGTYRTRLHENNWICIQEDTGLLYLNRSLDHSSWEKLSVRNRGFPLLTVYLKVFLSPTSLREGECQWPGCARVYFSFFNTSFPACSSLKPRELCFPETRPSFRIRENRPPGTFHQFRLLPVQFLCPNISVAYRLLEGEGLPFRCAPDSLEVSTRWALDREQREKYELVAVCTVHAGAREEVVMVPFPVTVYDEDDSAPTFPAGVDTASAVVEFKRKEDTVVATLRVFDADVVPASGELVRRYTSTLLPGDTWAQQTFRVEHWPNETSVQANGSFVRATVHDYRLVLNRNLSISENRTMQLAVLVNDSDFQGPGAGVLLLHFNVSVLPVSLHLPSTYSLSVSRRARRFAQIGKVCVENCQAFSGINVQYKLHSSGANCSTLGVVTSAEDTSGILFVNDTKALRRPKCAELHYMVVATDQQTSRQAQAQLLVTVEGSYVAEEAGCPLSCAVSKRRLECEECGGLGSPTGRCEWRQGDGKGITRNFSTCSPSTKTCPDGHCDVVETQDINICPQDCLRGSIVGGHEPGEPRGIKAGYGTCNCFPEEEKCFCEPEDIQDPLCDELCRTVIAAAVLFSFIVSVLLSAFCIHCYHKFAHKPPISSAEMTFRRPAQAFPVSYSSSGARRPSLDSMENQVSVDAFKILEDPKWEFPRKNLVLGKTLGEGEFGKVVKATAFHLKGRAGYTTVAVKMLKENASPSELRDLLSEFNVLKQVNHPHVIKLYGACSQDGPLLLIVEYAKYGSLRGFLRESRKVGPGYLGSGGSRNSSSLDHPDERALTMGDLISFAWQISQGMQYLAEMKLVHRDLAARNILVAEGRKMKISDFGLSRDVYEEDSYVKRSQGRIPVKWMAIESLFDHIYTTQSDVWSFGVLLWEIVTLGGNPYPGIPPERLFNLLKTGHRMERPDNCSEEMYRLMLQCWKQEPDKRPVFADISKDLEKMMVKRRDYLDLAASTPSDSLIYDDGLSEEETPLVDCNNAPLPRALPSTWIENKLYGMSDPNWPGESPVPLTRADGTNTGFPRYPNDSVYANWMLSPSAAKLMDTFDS
Sequence of STK33 (human) (Q9BYT3 whole entry, looked up): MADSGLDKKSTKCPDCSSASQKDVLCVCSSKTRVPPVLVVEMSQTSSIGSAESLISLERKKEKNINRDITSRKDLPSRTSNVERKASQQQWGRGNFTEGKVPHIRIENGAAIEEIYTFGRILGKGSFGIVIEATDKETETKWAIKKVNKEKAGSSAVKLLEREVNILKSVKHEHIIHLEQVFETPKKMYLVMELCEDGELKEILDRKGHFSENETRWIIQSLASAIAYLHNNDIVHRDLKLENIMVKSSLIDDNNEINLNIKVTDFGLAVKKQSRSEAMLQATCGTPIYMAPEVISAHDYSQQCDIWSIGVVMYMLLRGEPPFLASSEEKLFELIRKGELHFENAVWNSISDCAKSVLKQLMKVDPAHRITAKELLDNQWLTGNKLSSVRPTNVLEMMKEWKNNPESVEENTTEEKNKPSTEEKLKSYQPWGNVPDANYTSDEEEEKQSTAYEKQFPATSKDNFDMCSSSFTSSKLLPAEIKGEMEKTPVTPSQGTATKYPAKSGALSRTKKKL
Sequence of RET (human), P07949 [M918T] (P07949 whole entry M918T, looked up): as the sequence (P07949 whole entry, looked up) above, with M918T counted along it

## N#CCNC(=O)c1ccc(-c2ccnc(Nc3ccc(N4CCOCC4)cc3)n2)cc1
[1]
  kinase still bound, per cent of control: 3.9%
[2]
  kinase still bound, per cent of control: 90%
[3]
  kinase still bound, per cent of control: 66%
[4]
  kinase still bound, per cent of control: 55%
[5]
  kinase still bound, per cent of control: 13%
[6]
  kinase still bound, per cent of control: 100%
[7]
  kinase still bound, per cent of control: 69%
[8]
  kinase still bound, per cent of control: 52%
[9]
  kinase still bound, per cent of control: 70%
[10]
  kinase still bound, per cent of control: 72%
[11]
  kinase still bound, per cent of control: 69%
[12]
  kinase still bound, per cent of control: 61%
[13]
  kinase still bound, per cent of control: 100%
[14]
  kinase still bound, per cent of control: 12%
[15]
  kinase still bound, per cent of control: 57%
[16]
  kinase still bound, per cent of control: 94%
[17]
  kinase still bound, per cent of control: 100%
[18]
  kinase still bound, per cent of control: 93%
[19]
  kinase still bound, per cent of control: 71%
[20]
  kinase still bound, per cent of control: 26%
[21]
  kinase still bound, per cent of control: 42%
[22]
  kinase still bound, per cent of control: 6.2%
[23]
  kinase still bound, per cent of control: 8.9%
[24]
  kinase still bound, per cent of control: 56%
[25]
  kinase still bound, per cent of control: 100%
[26]
  kinase still bound, per cent of control: 75%
[27]
  kinase still bound, per cent of control: 22%
[28]
  kinase still bound, per cent of control: 100%
[29]
  kinase still bound, per cent of control: 50%
[30]
  kinase still bound, per cent of control: 78%
[31]
  kinase still bound, per cent of control: 100%
[32]
  kinase still bound, per cent of control: 100%
[33]
  kinase still bound, per cent of control: 100%
[34]
  kinase still bound, per cent of control: 100%
[35]
  kinase still bound, per cent of control: 98%
[36]
  kinase still bound, per cent of control: 47%
[37]
  kinase still bound, per cent of control: 32%
[38]
  kinase still bound, per cent of control: 100%

## CS(=O)(=O)N1CCN(Cc2cc3nc(-c4cccc5[nH]ncc45)nc(N4CCOCC4)c3s2)CC1
[1]
  kinase still bound, per cent of control: 100%
[2]
  kinase still bound, per cent of control: 100%
[3]
  kinase still bound, per cent of control: 100%
[4]
  kinase still bound, per cent of control: 100%
[39]
  kinase still bound, per cent of control: 100%
[6]
  kinase still bound, per cent of control: 100%
[7]
  kinase still bound, per cent of control: 100%
[8]
  kinase still bound, per cent of control: 100%
[9]
  kinase still bound, per cent of control: 100%
[10]
  kinase still bound, per cent of control: 100%
[11]
  kinase still bound, per cent of control: 100%
[12]
  kinase still bound, per cent of control: 100%
[13]
  kinase still bound, per cent of control: 100%
[14]
  kinase still bound, per cent of control: 100%
[15]
  kinase still bound, per cent of control: 100%
[16]
  kinase still bound, per cent of control: 100%
[17]
  kinase still bound, per cent of control: 100%
[18]
  kinase still bound, per cent of control: 100%
[19]
  kinase still bound, per cent of control: 100%
[20]
  kinase still bound, per cent of control: 100%
[21]
  kinase still bound, per cent of control: 100%
[22]
  kinase still bound, per cent of control: 100%
[23]
  kinase still bound, per cent of control: 100%
[24]
  kinase still bound, per cent of control: 100%
[25]
  kinase still bound, per cent of control: 100%
[27]
  kinase still bound, per cent of control: 100%
[28]
  kinase still bound, per cent of control: 100%
[29]
  kinase still bound, per cent of control: 100%
[30]
  kinase still bound, per cent of control: 100%
[31]
  kinase still bound, per cent of control: 100%
[32]
  kinase still bound, per cent of control: 100%
[33]
  kinase still bound, per cent of control: 100%
[34]
  kinase still bound, per cent of control: 100%
[35]
  kinase still bound, per cent of control: 100%
[36]
  kinase still bound, per cent of control: 100%
[37]
  kinase still bound, per cent of control: 100%
[38]
  kinase still bound, per cent of control: 100%

## COc1cc(N2CCN(C)CC2)ccc1Nc1ncc2c(n1)N(C)c1ccccc1C(=O)N2C
[1]
  kinase still bound, per cent of control: 100%
[2]
  kinase still bound, per cent of control: 100%
[3]
  kinase still bound, per cent of control: 100%
[4]
  kinase still bound, per cent of control: 100%
[39]
  kinase still bound, per cent of control: 100%
[6]
  kinase still bound, per cent of control: 100%
[7]
  kinase still bound, per cent of control: 100%
[8]
  kinase still bound, per cent of control: 0.65%
[9]
  kinase still bound, per cent of control: 100%
[10]
  kinase still bound, per cent of control: 100%
[11]
  kinase still bound, per cent of control: 100%
[12]
  kinase still bound, per cent of control: 100%
[13]
  kinase still bound, per cent of control: 100%
[14]
  kinase still bound, per cent of control: 100%
[15]
  kinase still bound, per cent of control: 100%
[16]
  kinase still bound, per cent of control: 100%
[17]
  kinase still bound, per cent of control: 100%
[18]
  kinase still bound, per cent of control: 100%
[19]
  kinase still bound, per cent of control: 100%
[20]
  kinase still bound, per cent of control: 100%
[21]
  kinase still bound, per cent of control: 100%
[22]
  kinase still bound, per cent of control: 100%
[23]
  kinase still bound, per cent of control: 14%
[24]
  kinase still bound, per cent of control: 100%
[25]
  kinase still bound, per cent of control: 9.8%
[27]
  kinase still bound, per cent of control: 3.8%
[28]
  kinase still bound, per cent of control: 100%
[29]
  kinase still bound, per cent of control: 100%
[30]
  kinase still bound, per cent of control: 100%
[31]
  kinase still bound, per cent of control: 100%
[32]
  kinase still bound, per cent of control: 100%
[33]
  kinase still bound, per cent of control: 100%
[34]
  kinase still bound, per cent of control: 100%
[35]
  kinase still bound, per cent of control: 8.8%
[36]
  kinase still bound, per cent of control: 23%
[37]
  kinase still bound, per cent of control: 100%
[38]
  kinase still bound, per cent of control: 100%

## CCN(CC)CCCCNc1ncc2c(n1)N(C)C(=O)N(c1c(Cl)c(OC)cc(OC)c1Cl)C2
[1]
  kinase still bound, per cent of control: 100%
[2]
  kinase still bound, per cent of control: 100%
[3]
  kinase still bound, per cent of control: 100%
[4]
  kinase still bound, per cent of control: 100%
[39]
  kinase still bound, per cent of control: 100%
[6]
  kinase still bound, per cent of control: 100%
[7]
  kinase still bound, per cent of control: 100%
[8]
  kinase still bound, per cent of control: 100%
[9]
  kinase still bound, per cent of control: 100%
[10]
  kinase still bound, per cent of control: 100%
[11]
  kinase still bound, per cent of control: 100%
[12]
  kinase still bound, per cent of control: 100%
[13]
  kinase still bound, per cent of control: 100%
[14]
  kinase still bound, per cent of control: 100%
[15]
  kinase still bound, per cent of control: 100%
[16]
  kinase still bound, per cent of control: 34%
[17]
  kinase still bound, per cent of control: 100%
[18]
  kinase still bound, per cent of control: 100%
[19]
  kinase still bound, per cent of control: 100%
[20]
  kinase still bound, per cent of control: 100%
[21]
  kinase still bound, per cent of control: 100%
[22]
  kinase still bound, per cent of control: 100%
[23]
  kinase still bound, per cent of control: 100%
[24]
  kinase still bound, per cent of control: 100%
[25]
  kinase still bound, per cent of control: 100%
[27]
  kinase still bound, per cent of control: 100%
[28]
  kinase still bound, per cent of control: 100%
[29]
  kinase still bound, per cent of control: 100%
[30]
  kinase still bound, per cent of control: 100%
[31]
  kinase still bound, per cent of control: 100%
[32]
  kinase still bound, per cent of control: 100%
[33]
  kinase still bound, per cent of control: 100%
[34]
  kinase still bound, per cent of control: 100%
[35]
  kinase still bound, per cent of control: 100%
[36]
  kinase still bound, per cent of control: 100%
[37]
  kinase still bound, per cent of control: 100%
[38]
  kinase still bound, per cent of control: 100%
